{
  "source": "patent US20070190036A1",
  "about": "“Microencapsulation of pancreatic islets within a thin coat of glucagon-like peptide-1 functionalized poly(ethylene glycol)” (priority 2006, published 2007)",
  "origin": "cited, not measured here",
  "tested_on": "rat pancreatic islets",
  "details": "isolated rat pancreatic islets",
  "data": [
    {"substance": "glucagon-like peptide 1 [GLP-1]", "values": [
      {"measurement": "concentration at which insulinotropic activity began", "result": 2.5, "unit": "nM"},
      {"measurement": "concentration at which insulinotropic activity was saturated", "result": 250, "unit": "nM"}
    ]}
  ]
}
